Test system: antibodies to HIV-2
Assay: EIA of HIV-2 peptide-BSA conjugates with macaque sera
Type: binding
Settings: macaque sera containing or not containing antibodies to HIV-2, Figure 7
Protocol: The synthetic peptides of Figures 1-8 were reduced with 10mM DTT, or with immobilized DTT (Reductacryl, Calbiochem, San Diego, California, U.S.A., 10 mg Reductacryl per mg peptide) overnight at 4°C, pH8 in 10mM borate or other buffers depending upon peptide solubility, with gentle mixing. KLH was dissolved at a concentration of 10-30 mg/ml in 10 mM phosphate buffer pH 7.2., and BSA was dissolved at a concentration of 20-80 mg/ml for treatment with heterobifunctional linkers MBS (m-Maleimidobenzoyl-N-hydroxysuccinimide ester), SPDP [N-Succinimidyl 3-(2 pyridyldithio)propionate], or Sulfo-SMCC [Sulfo-Succinimidyl 4(N-maleimidomethyl)-cyclohexane-1-carboxylate]. The heterobifunctional linkers were added to the protein solutions in a molar excess of linker to BSA of 100, or of linker to KLH of 1000. MBS was dissolved in DMF at 10mg/ml, SPDP was dissolved in absolute ethanol at 10mg/ml and each of these was added dropwise with mixing into the protein solution, whereas the Sulfo-SMCC dry powder was dissolved into the protein solution. Each protein-linker mixture was reacted at room temperature for 15 minutes to 1 hour and then free linker was separated from BSA-linker or KLH-linker by gel chromatography with Sephadex G25 using 50mM phosphate, pH 6 for KLH-MBS, 10mM acetate, 100 mM Nacl, pH 4.6 for BSA-SPDP, or 100 mM phosphate, 1 mM EDTA, pH 6.5 for BSA-SMCC. The reduced peptides were separated from DTT by Sephadex G10 column chromatography when soluble DTT was used, or by centrifugation followed by filtration through a 0.22 micron filter when Reductacryl was used. Reduced peptides were combined with linker treated KLH or BSA in molar ratios of 100-1000 peptide/KLH-MBS, 1-50 peptide/BSA-SMCC, and 0.1-10 peptide/BSA-SPDP. Each reduced peptide was added to the linker-treated protein with mixing, overlayed with N₂, and then mixed gently at room temperature for one hour, and then overnight at 4°C. The SMCC-BSA conjugates were further treated with a 1 mM final concentration of mercaptoethylamine for 4 hours, and then dialyzed overnight against 100 volumes of buffer (20mM phosphate, 1 mM EDTA, 0.05% sodium azide, pH 6.5) at 4°C. All other conjugates were adjusted to a final concentration of sodium azide of 0.05%. Optimal molar ratios of peptide/protein for the conjugates were determined by solubility and antigenicity (as evaluated by EIA).
The free peptides or peptide-protein conjugates of Figures 1-13 were initially screened for immunoreactivity by coating each well of polystyrene microtiter EIA plates (Costar, Cambridge, Massachusetts, U.S.A.) with 0.2 ml amounts of concentrations of 5-50 micrograms/ml peptide in Tris buffer, 10 mM, pH 8.0, at 4°C overnight. […]

ARLNSWGCAFRQVCHGC [2S25]
discrimination of positive from negative samples: most favorable performances

Source: patent EP0449955B1, “SYNTHETIC HIV-LIKE PEPTIDES, THEIR COMPOSITIONS AND USES” (CLARITY TECHNOLOGIES INCORPORATED, priority 1988, dated 1996)
